Molecular target: T1, α-synuclein (Homo sapiens, UniProt P37840)
T1 construct: expressed in transfected cells
Assay: calcein assay of membrane integrity (reversal of α-synuclein-mediated disruption of cell membranes, FLIPR)
Format: cell-based
Conditions: 0.01 μM test compound; neuronal cells infected with LV-α-synuclein, 24 h treatment in serum free media, calcein retention
Experimental: (b) Neuronal Activity/Integrity. Toxic aggregates of α-synuclein disrupt the integrity of cell membranes. The disruptive effect of α-synuclein and the ability of test compounds to reverse the α-synuclein-mediated disruption of cell membranes are measured using calcein. Calcein is a fluorescent marker that is retained in healthy cells but is not retained in cells with diminished cellular integrity. To ascertain the effects on neuronal activity, cells are infected with LV-α-synuclein for 24 h, treated with test compound at a range of concentrations, for example 0.01-10 μM, for 24 h in serum free media, loaded with Fluo-4 or calcein, and analyzed by FLIPR assay to determine Ca^2+ and calcein levels. […] Test compounds are evaluated for the ability to restore concentrations of Ca^2+ to those in cells not infected with LV-α-synuclein. […] Test compounds are evaluated, in a concentration-dependent manner, for their ability to reverse the effect of α-synuclein on levels of calcein.

Structure (SMILES)	Percent reversal of α-Syn mediated disruption of cell integrity
CCCc1nnc(C(Cc2c[nH]c3ccccc23)NC(=O)c2cnc(N3CCN(C)CC3)s2)[nH]1 (stereo not drawn) [Example 10, N-(2-(1H-indol-3-yl)-1-(5-propyl-4H-1,2,4-triazol-3-yl)ethyl)-2-(4-methylpiperazin-1-yl)thiazole-5-carboxamide]	115%
CCCc1nnc(C(Cc2c[nH]c3ccccc23)NC(=O)c2cnc(N3CCN(C)CC3)s2)s1 (stereo not drawn) [Example 9, N-(2-(1H-indol-3-yl)-1-(5-propyl-1,3,4-thiadiazol-2-yl)ethyl)-2-(4-methylpiperazin-1-yl)thiazole-5-carboxamide]	187%
CCCCNNC(=O)C(Cc1c[nH]c2ccccc12)NC(=O)c1cnc(N2CCN(C)CC2)s1 (stereo not drawn) [Example 8, N-(1-(2-butylhydrazinyl)-3-(1H-indol-3-yl)-1-oxopropan-2-yl)-2-(4-methylpiperazin-1-yl)thiazole-5-carboxamide]	135%
CCc1csc(C(Cc2c[nH]c3ccccc23)NC(=O)c2cnc(N3CCN(C)CC3)s2)n1 (stereo not drawn) [Example 6, N-(1-(4-ethylthiazol-2-yl)-2-(1H-indol-3-yl)ethyl)-2-(4-methylpiperazin-1-yl)thiazole-5-carboxamide]	137%
CCCCn1nnc(C(Cc2c[nH]c3ccccc23)NC(=O)c2cnc(N3CCN(C)CC3)s2)n1 (stereo not drawn) [Example 5, N-(1-(2-butyl-2H-tetrazol-5-yl)-2-(1H-indol-3-yl)ethyl)-2-(4-methylpiperazin-1-yl)thiazole-5-carboxamide]	110%
CCCCNC(=N)C(Cc1c[nH]c2ccccc12)NC(=O)c1cnc(N2CCN(C)CC2)s1 (stereo not drawn) [Example 7, N-(1-(butylamino)-1-imino-3-(1H-indol-3-yl)propan-2-yl)-2-(4-methylpiperazin-1-yl)thiazole-5-carboxamide]	189%

Reference: patent US9284309B2, “Di- and tri-heteroaryl derivatives as inhibitors of protein aggregation” (Neuropore Therapies, Inc., priority 2012, dated 2016)
